Laboratory results taken from ChEMBL document CHEMBL5096235, “In Silico Exploration and Biological Evaluation of Bispecific Peptides Derived from Anti-HER2 Antibodies and Peptide-Camptothecin Conjugates for HER2-Positive Breast Cancer” (J Med Chem, 2022).
Active and inactive are the calls of the source. The rule behind the calls is not given here. Residues, ends and D or L forms follow the SMILES beside them. *: point of attachment. X1 = CC[C@@]1(OC(=O)CCCCCN2CC(=O)C(*)C2=O)C(=O)OCc2c1cc1n(c2=O)Cc2cc3ccccc3nc2-1; X2 = CC[C@@]1(OC(=O)CCS*)C(=O)OCc2c1cc1n(c2=O)Cc2cc3ccccc3nc2-1

Assays:
[1] = biological target: T1, Receptor tyrosine-protein kinase erbB-2 (Homo sapiens, UniProt P04626); assay: Binding affinity to HER2 in HER-positive human SK-BR-3 cells assessed as increase in fluorescence intensity at 25 uM by Hoechst 33342 staining based confocal microscopic analysis; format: cell-based
T1 sequence (P04626 whole entry): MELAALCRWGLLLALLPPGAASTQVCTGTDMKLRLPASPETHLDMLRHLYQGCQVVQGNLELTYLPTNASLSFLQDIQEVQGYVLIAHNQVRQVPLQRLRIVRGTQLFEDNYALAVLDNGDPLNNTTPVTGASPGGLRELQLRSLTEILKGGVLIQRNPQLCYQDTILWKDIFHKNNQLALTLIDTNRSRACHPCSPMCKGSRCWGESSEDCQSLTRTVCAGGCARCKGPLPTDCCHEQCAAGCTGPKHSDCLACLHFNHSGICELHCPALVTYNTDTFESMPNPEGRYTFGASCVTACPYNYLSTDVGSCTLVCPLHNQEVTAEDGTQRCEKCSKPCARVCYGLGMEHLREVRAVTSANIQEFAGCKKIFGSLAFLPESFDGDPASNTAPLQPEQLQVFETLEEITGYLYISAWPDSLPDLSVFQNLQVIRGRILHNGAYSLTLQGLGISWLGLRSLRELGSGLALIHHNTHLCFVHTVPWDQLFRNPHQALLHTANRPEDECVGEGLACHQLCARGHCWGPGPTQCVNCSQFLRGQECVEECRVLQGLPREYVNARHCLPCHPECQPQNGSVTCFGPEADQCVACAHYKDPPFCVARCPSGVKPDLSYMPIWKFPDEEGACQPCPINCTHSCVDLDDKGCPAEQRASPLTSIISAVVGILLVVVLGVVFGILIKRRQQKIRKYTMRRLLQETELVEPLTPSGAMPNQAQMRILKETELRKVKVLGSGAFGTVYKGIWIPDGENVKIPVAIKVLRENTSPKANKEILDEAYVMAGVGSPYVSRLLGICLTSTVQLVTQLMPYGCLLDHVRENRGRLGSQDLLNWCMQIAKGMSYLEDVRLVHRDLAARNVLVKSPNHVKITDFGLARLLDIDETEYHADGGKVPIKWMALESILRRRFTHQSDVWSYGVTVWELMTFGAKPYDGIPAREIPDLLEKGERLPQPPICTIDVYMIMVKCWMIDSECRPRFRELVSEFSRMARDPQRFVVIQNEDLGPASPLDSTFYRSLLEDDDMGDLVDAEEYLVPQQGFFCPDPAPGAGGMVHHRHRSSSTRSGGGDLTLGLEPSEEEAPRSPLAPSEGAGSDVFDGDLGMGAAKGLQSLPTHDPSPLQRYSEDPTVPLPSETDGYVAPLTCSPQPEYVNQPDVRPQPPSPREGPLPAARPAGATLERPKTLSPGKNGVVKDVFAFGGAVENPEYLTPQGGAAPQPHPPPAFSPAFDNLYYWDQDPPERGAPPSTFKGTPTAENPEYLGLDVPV

[2] = biological target: T1, Receptor tyrosine-protein kinase erbB-2; assay: Binding affinity to recombinant HER2 (unknown origin) assessed as dissociation constant by SPR analysis
[3] = Cytotoxicity against human MCF-10A cells assessed as inhibition of cell growth incubated for 48 hrs by MTT assay; format: toxicity, cell-based
NCI-N87 = assay: Cytotoxicity against HER-positive human NCI-N87 cells assessed as inhibition of cell growth incubated for 48 hrs by MTT assay; format: functional, cell-based; settings: NCI-N87, 48 h
MDA-MB-231 = assay: Cytotoxicity against HER-negative human MDA-MB-231 cells assessed as inhibition of cell growth incubated for 48 hrs by MTT assay; format: functional, cell-based; settings: MDA-MB-231, 48 h
SK-BR-3 = assay: Cytotoxicity against HER-positive human SK-BR-3 cells assessed as inhibition of cell growth incubated for 48 hrs by MTT assay; format: functional, cell-based; settings: SK-BR-3, 48 h
SK-OV-3 = assay: Cytotoxicity against HER-positive human SK-OV-3 cells assessed as inhibition of cell growth incubated for 48 hrs by MTT assay; format: functional, cell-based; settings: SK-OV-3, 48 h
[4] = Metabolic stability in Sprague-Dawley rat plasma assessed as drug degradation incubated for 120 mins by LC-MS/MS analysis; format: ADME, cell-free; settings: 2 h
[5] = Metabolic stability in Sprague-Dawley rat plasma assessed as half life incubated for 120 mins by LC-MS/MS analysis; format: ADME, cell-free

| Kd [2] [µM] | Structure (SMILES) | IC50 at 48 h [3] [µM] | IC50 (NCI-N87) [µM] | IC50 (MDA-MB-231) [µM] | IC50 (SK-BR-3) [µM] | IC50 (SK-OV-3) [µM] | further results |
| --- | --- | --- | --- | --- | --- | --- | --- |
| – | CC[C@H](C)[C@H](NC(=O)[C@H](CCCNC(=N)N)NC(=O)CNC(=O)[C@H](CS)NC(=O)CNC(=O)[C@H](CCCCN)NC(=O)[C@H](Cc1ccccc1)NC(=O)[C@H](CCCNC(=N)N)NC(=O)[C@H](CCC(N)=O)NC(=O)[C@H](CC(N)=O)NC(=O)[C@H](Cc1ccc(O)cc1)NC(=O)[C@H](Cc1c[nH]c2ccccc12)NC(=O)[C@H](CO)NC(=O)[C@H](CCCNC(=N)N)NC(=O)CNC(=O)[C@H](Cc1c[nH]c2ccccc12)NC(=O)[C@H](CC(N)=O)NC(=O)[C@@H]1CCCN1C(=O)[C@H](N)CC(=O)NC(=S)Nc1ccc2c(c1)C(=O)OC21c2ccc(O)cc2Oc2cc(O)ccc21)C(=O)N[C@@H](CCCCN)C(=O)N1CCC[C@@H]1C(=O)N[C@H](CCCNC(=N)N)C(=O)N[C@H](CCCCN)C(=O)NCC(=O)N[C@H](Cc1ccc(O)cc1)C(=O)N[C@@H](C(=O)N[C@H](CCCNC(=N)N)C(N)=O)[C@H](C)O | – | – | – | – | – | Activity [1]: Active |
| 9.89 | N=C(N)NCCC[C@H](NC(=O)[C@H](CCC(N)=O)NC(=O)[C@H](CC(N)=O)NC(=O)[C@H](Cc1ccc(O)cc1)NC(=O)[C@H](CCCNC(=N)N)NC(=O)[C@H](CO)NC(=O)[C@H](Cc1c[nH]c2ccccc12)NC(=O)CNC(=O)[C@H](Cc1c[nH]c2ccccc12)NC(=O)[C@H](CC(N)=O)NC(=O)[C@@H]1CCCN1C(=O)[C@@H](N)CC(N)=O)C(=O)N[C@@H](Cc1ccccc1)C(=O)N[C@@H](CCCCN)C(=O)O (H-NPNWGWSRYNQRFK-OH) | – | – | – | – | – | – |
| – | CC[C@H](C)[C@H](NC(=O)[C@@H](N)CCCNC(=N)N)C(=O)N[C@@H](CCCCN)C(=O)N1CCC[C@H]1C(=O)N[C@@H](CCCNC(=N)N)C(=O)N[C@@H](CCCCN)C(=O)NCC(=O)N[C@@H](Cc1ccc(O)cc1)C(=O)N[C@H](C(=O)N[C@@H](CCCNC(=N)N)C(=O)NCC(=O)N[C@@H](CSSCCC(=O)O[C@]1(CC)C(=O)OCc2c1cc1n(c2=O)Cc2cc3ccccc3nc2-1)C(=O)NCC(=O)N[C@@H](CSSCCC(=O)O[C@]1(CC)C(=O)OCc2c1cc1n(c2=O)Cc2cc3ccccc3nc2-1)C(=O)NC(=O)C[C@H](NC(=O)CN)C(=O)N1CCC[C@H]1C(=O)N[C@@H](CC(N)=O)C(=O)N[C@@H](Cc1c[nH]c2ccccc12)C(=O)NCC(=O)N[C@@H](CCCNC(=N)N)C(=O)N[C@@H](CO)C(=O)N[C@@H](Cc1c[nH]c2ccccc12)C(=O)N[C@@H](Cc1ccc(O)cc1)C(=O)N[C@@H](CC(N)=O)C(=O)N[C@@H](CCC(N)=O)C(=O)N[C@@H](CCCNC(=N)N)C(=O)N[C@@H](Cc1ccccc1)C(=O)N[C@@H](CCCCN)C(N)=O)[C@@H](C)O | 18.2 | 7.37 | 11.5 | 1.49 | 4.12 | – |
| 7.6 | CC[C@H](C)[C@H](NC(=O)[C@@H](N)CCCNC(=N)N)C(=O)N[C@@H](CCCCN)C(=O)N1CCC[C@H]1C(=O)N[C@@H](CCCNC(=N)N)C(=O)N[C@@H](CCCCN)C(=O)NCC(=O)N[C@@H](Cc1ccc(O)cc1)C(=O)N[C@H](C(=O)N[C@@H](CCCNC(=N)N)C(=O)O)[C@@H](C)O (H-RIKPRKGYTR-OH) | – | – | – | – | – | – |
| 12.3 | N=C(N)NCCC[C@H](NC(=O)CNC(=O)[C@H](Cc1c[nH]c2ccccc12)NC(=O)[C@@H]1CCCN1C(=O)[C@@H]1CCCN1C(=O)[C@@H](N)CC(N)=O)C(=O)N[C@@H](CO)C(=O)N[C@@H](CCCNC(=N)N)C(=O)N[C@@H](Cc1ccc(O)cc1)C(=O)N[C@@H](CC(N)=O)C(=O)N[C@@H](CCC(N)=O)C(=O)N[C@@H](CCCNC(=N)N)C(=O)N[C@@H](Cc1ccccc1)C(=O)N[C@@H](CCCCN)C(=O)O (H-NPPWGRSRYNQRFK-OH) | – | – | – | – | – | – |
| 0.385 | CC[C@H](C)[C@H](NC(=O)[C@H](CCCNC(=N)N)NC(=O)CNC(=O)[C@H](CS)NC(=O)CNC(=O)[C@H](CS)NC(=O)CNC(=O)[C@H](CCCCN)NC(=O)[C@H](Cc1ccccc1)NC(=O)[C@H](CCCNC(=N)N)NC(=O)[C@H](CCC(N)=O)NC(=O)[C@H](CC(N)=O)NC(=O)[C@H](Cc1ccc(O)cc1)NC(=O)[C@H](Cc1c[nH]c2ccccc12)NC(=O)[C@H](CO)NC(=O)[C@H](CCCNC(=N)N)NC(=O)CNC(=O)[C@H](Cc1c[nH]c2ccccc12)NC(=O)[C@H](CC(N)=O)NC(=O)[C@@H]1CCCN1C(=O)[C@@H](N)CC(N)=O)C(=O)N[C@@H](CCCCN)C(=O)N1CCC[C@H]1C(=O)N[C@@H](CCCNC(=N)N)C(=O)N[C@@H](CCCCN)C(=O)NCC(=O)N[C@@H](Cc1ccc(O)cc1)C(=O)N[C@H](C(=O)N[C@@H](CCCNC(=N)N)C(=O)O)[C@@H](C)O (H-NPNWGRSWYNQRFKGCGCGRIKPRKGYTR-OH) | – | – | – | – | – | Stability [4]: Unstable; half-life [5]: 15 min |
| – | CC[C@H](C)[C@H](NC(=O)[C@@H](N)CCCNC(=N)N)C(=O)N[C@@H](CCCCN)C(=O)N1CCC[C@H]1C(=O)N[C@@H](CCCNC(=N)N)C(=O)N[C@@H](CCCCN)C(=O)NCC(=O)N[C@@H](Cc1ccc(O)cc1)C(=O)N[C@H](C(=O)N[C@@H](CCCNC(=N)N)C(=O)NCC(=O)N[C@@H](CSC1C(=O)CN(CCCCCC(=O)O[C@]2(CC)C(=O)OCc3c2cc2n(c3=O)Cc3cc4ccccc4nc3-2)C1=O)C(=O)NCC(=O)N[C@@H](CC(N)=O)C(=O)N1CCC[C@H]1C(=O)N[C@@H](CC(N)=O)C(=O)N[C@@H](Cc1c[nH]c2ccccc12)C(=O)NCC(=O)N[C@@H](CCCNC(=N)N)C(=O)N[C@@H](CO)C(=O)N[C@@H](Cc1c[nH]c2ccccc12)C(=O)N[C@@H](Cc1ccc(O)cc1)C(=O)N[C@@H](CC(N)=O)C(=O)N[C@@H](CCC(N)=O)C(=O)N[C@@H](CCCNC(=N)N)C(=O)N[C@@H](Cc1ccccc1)C(=O)N[C@@H](CCCCN)C(N)=O)[C@@H](C)O (stereo not given in full) (H-RIKPRKGYTRGC(X1)GNPNWGRSWYNQRFK-NH2) | 35.2 | 15.3 | 23.1 | 25.4 | 24.4 | – |
| 8.9 | N=C(N)NCCC[C@H](NC(=O)[C@H](CCC(N)=O)NC(=O)[C@H](CC(N)=O)NC(=O)[C@H](Cc1ccc(O)cc1)NC(=O)[C@H](Cc1c[nH]c2ccccc12)NC(=O)[C@H](CO)NC(=O)[C@H](Cc1c[nH]c2ccccc12)NC(=O)CNC(=O)[C@H](Cc1c[nH]c2ccccc12)NC(=O)[C@H](CC(N)=O)NC(=O)[C@@H]1CCCN1C(=O)[C@@H](N)CC(N)=O)C(=O)N[C@@H](Cc1ccccc1)C(=O)N[C@@H](CCCCN)C(=O)O (H-NPNWGWSWYNQRFK-OH) | – | – | – | – | – | – |
| – | CC[C@H](C)[C@H](NC(=O)[C@@H](N)CCCNC(=N)N)C(=O)N[C@@H](CCCCN)C(=O)N1CCC[C@H]1C(=O)N[C@@H](CCCNC(=N)N)C(=O)N[C@@H](CCCCN)C(=O)NCC(=O)N[C@@H](Cc1ccc(O)cc1)C(=O)N[C@H](C(=O)N[C@@H](CCCNC(=N)N)C(=O)NCC(=O)N[C@@H](CSC1C(=O)CN(CCCCCC(=O)O[C@]2(CC)C(=O)OCc3c2cc2n(c3=O)Cc3cc4ccccc4nc3-2)C1=O)C(=O)NCC(=O)N[C@@H](CSC1C(=O)CN(CCCCCC(=O)O[C@]2(CC)C(=O)OCc3c2cc2n(c3=O)Cc3cc4ccccc4nc3-2)C1=O)C(=O)NC(=O)C[C@H](NC(=O)CN)C(=O)N1CCC[C@H]1C(=O)N[C@@H](CC(N)=O)C(=O)N[C@@H](Cc1c[nH]c2ccccc12)C(=O)NCC(=O)N[C@@H](CCCNC(=N)N)C(=O)N[C@@H](CO)C(=O)N[C@@H](Cc1c[nH]c2ccccc12)C(=O)N[C@@H](Cc1ccc(O)cc1)C(=O)N[C@@H](CC(N)=O)C(=O)N[C@@H](CCC(N)=O)C(=O)N[C@@H](CCCNC(=N)N)C(=O)N[C@@H](Cc1ccccc1)C(=O)N[C@@H](CCCCN)C(N)=O)[C@@H](C)O (stereo not given in full) | 25.2 | 10.9 | 28.2 | 6.72 | 20.4 | – |
| – | CC[C@H](C)[C@H](NC(=O)[C@@H](N)CCCNC(=N)N)C(=O)N[C@@H](CCCCN)C(=O)N1CCC[C@H]1C(=O)N[C@@H](CCCNC(=N)N)C(=O)N[C@@H](CCCCN)C(=O)NCC(=O)N[C@@H](Cc1ccc(O)cc1)C(=O)N[C@H](C(=O)N[C@@H](CCCNC(=N)N)C(=O)NCC(=O)N[C@@H](CSSCCC(=O)O[C@]1(CC)C(=O)OCc2c1cc1n(c2=O)Cc2cc3ccccc3nc2-1)C(=O)NCC(=O)N[C@@H](CC(N)=O)C(=O)N1CCC[C@H]1C(=O)N[C@@H](CC(N)=O)C(=O)N[C@@H](Cc1c[nH]c2ccccc12)C(=O)NCC(=O)N[C@@H](CCCNC(=N)N)C(=O)N[C@@H](CO)C(=O)N[C@@H](Cc1c[nH]c2ccccc12)C(=O)N[C@@H](Cc1ccc(O)cc1)C(=O)N[C@@H](CC(N)=O)C(=O)N[C@@H](CCC(N)=O)C(=O)N[C@@H](CCCNC(=N)N)C(=O)N[C@@H](Cc1ccccc1)C(=O)N[C@@H](CCCCN)C(N)=O)[C@@H](C)O (H-RIKPRKGYTRGC(X2)GNPNWGRSWYNQRFK-NH2) | 20.4 | 5.76 | 10.9 | 6.42 | 6.25 | – |
| 5.7 | N=C(N)NCCC[C@H](NC(=O)CNC(=O)[C@H](Cc1c[nH]c2ccccc12)NC(=O)[C@H](CC(N)=O)NC(=O)[C@@H]1CCCN1C(=O)[C@@H](N)CC(N)=O)C(=O)N[C@@H](CO)C(=O)N[C@@H](Cc1c[nH]c2ccccc12)C(=O)N[C@@H](Cc1ccc(O)cc1)C(=O)N[C@@H](CC(N)=O)C(=O)N[C@@H](CCC(N)=O)C(=O)N[C@@H](CCCNC(=N)N)C(=O)N[C@@H](Cc1ccccc1)C(=O)N[C@@H](CCCCN)C(=O)O (H-NPNWGRSWYNQRFK-OH) | – | – | – | – | – | – |
| 14.3 | N=C(N)NCCC[C@H](NC(=O)[C@H](CCC(N)=O)NC(=O)[C@H](CC(N)=O)NC(=O)[C@H](Cc1ccc(O)cc1)NC(=O)[C@H](Cc1c[nH]c2ccccc12)NC(=O)[C@H](CO)NC(=O)[C@H](Cc1ccc(O)cc1)NC(=O)CNC(=O)[C@H](Cc1c[nH]c2ccccc12)NC(=O)[C@H](CC(N)=O)NC(=O)[C@@H]1CCCN1C(=O)[C@@H](N)CC(N)=O)C(=O)N[C@@H](Cc1ccccc1)C(=O)N[C@H](C=O)CCCCN (H-NPNWGYSWYNQRFK-aldehyde) | – | – | – | – | – | – |
